Reference: US20240082221A1, “COMPOSITIONS AND METHODS FOR THE IDENTIFICATION OF COMPOUNDS THAT PROTECT AGAINST LIPOFUSCIN CYTOTOXICITY” (priority 2021, published 2024)

Columns and labels:
XBP1s = experiment: Intravitreal treatment of DKO mice, XBP1s immunostaining of RPE flat mounts; format: in vivo, ABCA4−/− RDH8−/− double knock-out mice (DKO); conditions: 26 month old DKO mice, intraocular, a week later, vs mock treated eyes
Procedure: Animals. Pigmented ABCA4^−/− RDH8^−/− double knock-out mice (DKO), free of rd8 mutation, were purchased from Jackson laboratories and every 10 generations were in house backcrossed to the C57BL6J control strain, to prevent genetic drifts. Genotyping was performed at Transnetyx (Memphis, TN). Only mice with ABCA4, RDH8, RPE65-Leu450 but no crb1 mutations (retinal degeneration slow) were maintained in the colony. Controls C57BL/6J (Rpe65-Leu450, crb1negative) were also Jackson's lab. All mice were housed at Weill Cornell Medicine's animal facility under a 12 h light (˜10 lux)/12 h dark cycle environment or under complete darkness. Experimental manipulations in the dark were done under dim red light transmitted through a Kodak No. 1 safelight filter (transmittance >560 nm). No retinal degeneration or necroptosis markers were appreciably detected in 20 months or older C57BL6/N (Rpe65-Met450, crb1 positive) obtained from the NAI/NIH. All animal procedures and experiments were approved by the Animal Care and Use Committee of Weill Cornell Medical College in agreement with the guidelines established by the NIH Office of Laboratory Animal Welfare and the Association of Research for Vision and Ophthalmology (ARVO) statement for the use of animals in ophthalmic research. […]
Pharmacological treatment of mice. […] The exact volume of Mock reagent or Kira6 was determined by 10 μl Hamilton syringe. […]

[1] = system: EDN2, FGF2, GFAP, SERP, VEGF, CXCL15, XBP1s, SCAND1, CEBPA, HMGA; experiment: Intravitreal treatment of DKO mice, qPCR of retinal degeneration markers in whole retina; format: in vivo, ABCA4−/− RDH8−/− double knock-out mice (DKO); conditions: total RNA from whole retina, vs control injected eyes
Procedure: Pharmacological treatment of mice. KIRA6 (Cayman Chemical, item no. 19151) was injected intravitreously with 1 μL total volume. KIRA6 concentration is 20 μg/ml. The control eye received an equal amount of mock reagent (DMSO). Mouse was weighed and anesthetized with Ketamine cocktail at 10 mg/kg, then mouse eyes were dilated with Tropicamide. The exact volume of Mock reagent or Kira6 was determined by 10 μl Hamilton syringe. Under surgery microscope, mouse eye was placed in the center of the field, 34 gauge of needle was inserted into mouse eye at the Ora serrata and towards ONH. Once the needle was inside the mouse eye, 2 μl of the contents in the Hamilton syringe was injected. The needle was slowly withdrawn to prevent the reflux of the solution. Nec7 (2 μL of 33 mM stock in DMSO) was intravitreally injected in the left eye and an equal amount of vehicle (DMSO) was administered to the right eye. After intravitreal injection, the mouse was placed in a warm place until it completely woke up. […]
RNA isolation and quantitative PCR. […] The total RNA then was reversed transcribed using High-Capacity cDNA Reverse Transcription Kit (ThermoFisher Scientific, cat.no. 4368814) and analyzed gene expression using SYBR Green Master Mix (ThermoFisher Scientific, cat.no. 4472908) in an Applied Biosystems StepOne real time PCR machine. […]

[2] = system: unfolded protein response (UPR) pathway; experiment: RNAseq / Ingenuity Pathway Analysis of cells with dark LF cytotoxicity; format: cell-based, Human; conditions: cells with dark LF cytotoxicity vs cells rescued by treatment
Procedure: RNAseq. Cultured ARPE19 cells were treated with or without 15 uM A2E for 24 hours, then cells were harvested and total RNA extracted. […]. RNAseq profiles were analyzed further with Ingenuity Pathway Analysis (IPA, Qiagen).
To investigate the cellular processes leading to necroptosis, Ingenuity Pathway Analysis (IPA) was used to compare the transcriptomes of cells suffering of dark LF cytotoxicity with cells rescued by Nec7 treatment. […] The UPR is a conserved transcriptional response to the aberrant accumulation of misfolded proteins or lipids in the endoplasmic reticulum. UPR is elicited by three ER-resident sensors: PERK, IRE1α and […]. […] To evaluate the impact of UPR downregulation, the list of UPR transcripts inhibited by Nec7 was extracted and a new IPA analysis was performed for the downstream consequences (FIG. 5D).

cathepsin D = format: cell-based
From the text: Next, A2E buildups were imaged using a combination of DIC and fluorescence: A2E appeared as granules with well-defined edges, both within cells or after drying over a coverslip (FIGS. 14D and 14E). Next, the ability of the suspected A2E crystals to damage lysosomal membranes was investigated. A recently developed galectin-3 puncta assay for early detection of lysosomal membrane permeabilization (LMP) was used. Briefly, cytosolic galectin-3 rapidly binds to the glycocalyx in the luminal face of lysosomal membranes as they become leaky, which is easily detectable with anti-galectin high-affinity antibodies. L-Leucyl-L-Leucine methyl ester (LLO) a lysosomotropic peptide that causes LMP was used as positive control of puncta formation (FIG. 14E). […] LMP was confirmed by showing the […] of cathepsin D, as surrogate of lysosomal enzymes. […] Also, very remarkable was the observation that the same unique pattern of protection with arimoclomol and Nec-7 but not Nec-1 was observable for LLO (FIG. 14K), consistent with the idea that necroptosis by A2E is being caused by LMP.

ARPE19 cells = experiment: ATR-induced light-independent cell death; format: cell-based, Human; conditions: pre-treatment with 33 μM
From the text: Overall, these indicate that necroptosis is a specific readout of ocular lipofuscin toxicity, easily distinguishable from the poisonous effects of ATR.

| SMILES | XBP1s staining of whole RPE flat mounts (XBP1s) | mRNA levels of markers for retinal degeneration, inflammation/angiogenesis, ER-stress and necroptosis [1] | transcriptome pathway variation induced by treatment (IPA) [2] | effect on loss of cathepsin-D activity caused by A2E (cathepsin D) | effect on cell death by ATR (ARPE19 cells) |
| --- | --- | --- | --- | --- | --- |
| CC(C)(C)c1nc(-c2ccc(NC(=O)Nc3cccc(C(F)(F)F)c3)c3ccccc23)c2c(N)nccn12 [KIRA6] | decreased from the center to the periphery | generalized reduction in all the tested markers |  |  |  |
| N=C1S/C(=C\c2cn[nH]c2-c2ccc(F)cc2)C(=O)N1c1nccs1 [Nec7, Necrostatin 7] |  |  | inhibition of the unfolded protein response (UPR) | prevented | did not block cell death |
